The text below walks through data of patent US20250214973A1, “1,4,5-TRISUBSTITUTED-1,2,3-TRIAZOLES AND USES THEREOF” (UNIVERSITY OF PUERTO RICO, priority 2022, published 2025).

Series [1] deals with human mammary epithelial cells (HMEC). The series is described as follows: Cell viability assay (MTT). It counts as cell-based. The settings on record: 0-1000 nM. The protocol: Cells were treated with 4c at concentrations ranging from 0-1000 nM. Cell viability was assessed by a MTT assay. n=2.
Equal number of cells were seeded in a 24 well plate and incubated with vehicle or compounds according to this disclosure at concentrations between 1 and 0.001 nM for 72 and 120 hrs. Using CellTiter 96 Non-Radioactive Cell Proliferation Assay (Promega, Corp.) according to manufactures' instructions, formazan was used as an indicator of viable cells at an absorbance 570 nm in a Tecan Microplate Reader M100. Data was calculated as fold change from vehicle and fitted using the 4′parameter logic nonlinear regression model in GraphPad Prism software. (n=3 biologic replicates: with 3 technical replicates each).

For series [2], the system named is Panc-1. The series can be described thus: Cell viability assay (MTT). It counts as cell-based. The settings on record: Homo sapiens, 120 hours, 0-1000 nM. As for the experimental part:
[…] Using CellTiter 96 Non-Radioactive Cell Proliferation Assay (Promega, Corp.) according to manufactures' instructions, formazan was used as an indicator of viable cells at an absorbance 570 nm in a Tecan Microplate Reader M100. Data was calculated as fold change from vehicle and fitted using the 4′parameter logic nonlinear regression model in GraphPad Prism software. (n=3 biologic replicates: with 3 technical replicates each).

Another series concerns the target T1, Vav2 binding to Rac1 (Homo sapiens, UniProt P63000, G15A).
T1 construct: purchased Cell Biolabs, San Diego; CA; host or cells: Vav2 from MDA-MB-231 cell lysate
The series can be described thus: Rac1 GEF assay, Rac1(G15A) pulldown. The settings on record: 250 nM, MDA-MB-231 lysates. The protocol: GST-Rac1 (G15A) beads were pre-incubated with vehicle (0.1% DMSO), or 8 μM EHop-016, or 250 nM Compound 4c for 1 hour followed by incubation with MDA-MB-231 cell lysates (equal total protein). Representative Western blot for Rac1(G15A) or pulldowns immunostained for Vav2 is shown (n=3).
MDA-MB-231 cells in culture medium were lysed in 1% Triton X-100, 20 mM HEPES, pH 7.4, 150 mM NaCl, 5 mm MgCl2, and protease inhibitors and processed. Equal amounts of protein from cleared lysates were incubated for 1 h at 4° C. with glutathione-agarose beads conjugated to GST-Rac1(G15A) nucleotide-free mutant (Cell Biolabs, San Diego. CA) that were preincubated (for 1 h) with vehicle or 8 μm EHop-016 or 0.25 μM Compound 4c. The beads were washed, and the lysates and pull-downs were immunoblotted for Tiam-1, Trio, Ect2, p-REX, or Vav2.

The subject of the next series is MDA-MB-231. The series can be described thus: Initial screening, inhibition of migration (wound gap). It counts as cell-based. Conditions: Homo sapiens, at 10 μM, read-out: Inh. of migration. As for the experimental part: In addition, the inhibition of migration of MDA-MB-231 was determined via the following procedure:
Prior to assays, cells were grown until 80-90% confluence was observed. We used a 75 cm^2 flask for 2.6×10^5 cells/mL in 10 mL and for a 25 cm^2 flask 1.44×10^5 cells/mL in 5 mL. The cells were washed with PBS to remove all traces of FBS. We added 2 mL for a 25 cm^2 flasks or 4 mL for a 75 cm^2 flasks trypsin, and incubated 5-10 min at 37° C. At the end of the incubation time, cells were re-suspended and counted with hemocytometer using 1:2 dilutions with Trypan blue. Subsequently, cell viability was calculated. In a 12 well tissue culture plate, we used the plastic pattern to draw a fine space with a fine marker on the bottom of the plate. Cells were seeded at 1.5-2.2×10^5 cells/mL in 1 mL and incubated for 24 h. Cells were then rinsed with PBS and incubated in starving media (0.5% FBS) overnight. All controls and drugs were tested in triplicate. The negative control for each drug was prepared according to the drug's DMSO concentration. […] The wound was made using a sterile pipette tip of 200 μL. Cells were then rinsed very gently with media without FBS and media with negative controls was added. After a 24 h incubation, the gap distance was evaluated using the software Lumera Infinity Analyze 6.4.0. Pictures were taken at 0, 8, 12 and 24 h using a 10× objective in an Inverted Laboratory Microscope Leica DM IL LED, and an Infinity1-3 3.1 Megapixel USB 2.0 camera CMOS. The percentage of migration was calculated using the following formula: […]

Series [3] deals with Panc-1. The series can be described thus: Wound healing assay. It counts as cell-based. Conditions: Homo sapiens, 24 hr, read-out: inhibition of Panc-1 cell migration. The protocol: Mircrographs were digitally acquired at 0, 12, and 24 hours and the area of the wound quantified relative to the distance at time 0. n=3.
Panc-1 cells plated at equal density were subjected to a scratch in the center and treated with 4c at 0, 150 nM, 250 nM, or 500 nM. Mircrographs were digitally acquired at 0, 12, and 24 hours and the area of the wound quantified relative to the distance at time 0. n=3.

Regarding `CCn1c2ccccc2c2cc(-n3nnc(C(O)c4cccc(OC)c4)c3-c3ccccc3)ccc21` (stereo not drawn) [Compound 4c, (1-(9-ethyl-9H-carbazol-3-yl)-5-phenyl-1H-1,2,3-triazol-4-yl) (3-methoxyphenyl) methanol], the “effect on non-transformed HMEC viability” value in series [1] is reported as “did not affect”. In the series on Panc-1 [2], this compound displayed a GI50 of 235 nM. Besides, the inhibition at […] at Vav2 binding to Rac1 is ~80%; in the series on Panc-1 [3] (250 nM), ~40%. The inhibition at 10 µM in the series on MDA-MB-231 came to 50.8 ± 11.4%. Moreover, the inhibition at 0.5 µM in the series with Panc-1 [3] (500 nM) is 75%.
